The conditions of the data set: pH 8. The source says: Note that in the present invention, as an index of the “water solubility” in a “water-soluble drug” or a “water-soluble steroid”, a distribution coefficient (octanol/water distribution coefficient) can be employed. The distribution coefficient can be expressed by log D by taking into consideration of the influence of pH, and the water solubility is indicated by a minus value, while the liposolubility lipophilicity is indicated by a plus value.
The distribution coefficient can be obtained in accordance with the method described in JIS Z7260-107 or […].

The text below walks through data of patent US20210060320A1, “TRANSDERMAL DRUG DELIVERY SYSTEM AND METHOD FOR USING SAME” (NICHIBAN CO., LTD., priority 2017, published 2021).

Regarding dexamethasone metasulfobenzoate sodium, the “distribution coefficient (log D)” value was −2.

prednisolone sodium phosphate: the “distribution coefficient (log D)” value was found to be 0.
